# In US10076572B2, “Photodynamic therapy for treating Clostridium difficile infection using chitosan and tetracycline” (priority 2015, dated 2018):
# “And” between values parts separate entries of the source, which are not always exact repeats. Identical values can stand only once.
# What was measured:
# C. difficile [1] = test: Synergistic photodynamic bactericidal activity (PDT with UVA), colony-forming units; format: cell-based, Clostridium difficile (KCTC 5009); details: for Log10 CFU/mL (mean ± SD, n = 3): UVA
# Description: The standard strain of Clostridium difficile was provided by Korean Collection for Type Cultures (C. difficile, KCTC 5009). C. difficile was cultured at 37° C. in a standard anaerobic condition on Clostridia reinforced agar (Oxoid, Cambridge, CB5 8BZ, UK).
# Tetracycline, chitosan (low molecular weight), and ethidium bromide monoazide (EMA) were purchased from Sigma (Sigma Chemical Co., St. Louis, Mo.). A stock solution of tetracycline was prepared in water at a concentration of 10 mg/mL and stored for a maximum of 2 weeks at 4° C. in the dark before use. A stock solution of chitosan (1% w/v) was prepared in 1% acetic acid and used within one month. The light source for UVA was lamp (315-400 nm) for treatment of psoriasis (UV801KL, Waldmann Medical division, Germany). The irradiation procedure was performed in a dark and closed box and C. difficile containing plates were placed at a distance of 10 cm from the light source.
# Based on a modification of the method of Tegos (G. P. Tegos, M. R. Hamblin. Phenothiazinium bactericidal photosensitizers are substrates of bacterial multidrug resistance pumps. Antimicrob. Agents Chemother. 50 (2006)196-203.), C. difficile that had been stored at −70° C. was cultured in Clostridial agar medium for 3 days.
# After successive subcultures for two days, the cells were collected and suspended in PBS at a concentration of 10^8 cells/mL. The cell suspension was exposed to tetracycline alone at concentrations of 0.05 mg/mL, 0.1 mg/mL, 0.5 mg/mL and 1 mg/mL, or to 0.0125% chitosan containing TC at a concentration of 0.05 mg/mL, 0.1 mg/mL, 0.5 mg/mL and 1 mg/mL for 30 min.
# After samples were washed twice with PBS, the bacterial cell suspension was dispensed at a volume of 1000 μL in a plate for irradiation for 5, 10, 20 and 30 min. After irradiation, cells were serially diluted tenfold in PBS to give dilutions of 10^−1 to 10^−8 of the original concentrations, and a 10 μL aliquot of each dilution was spotted on a Clostridial agar plate. After 2 days incubation, the colonies were counted to obtain the number of colony-forming units. C. difficile without treatment with TC, chitosan and light served as the control.
# C. difficile [2] = test: EMA-qPCR analysis of C. difficile DNA (16S rRNA gene) to evaluate cell death and DNA damage; format: cell-based, Clostridium difficile (KCTC 5009); details: UVA + TC (0.5 mg/mL), UVA irradiation 30 min
# [3] = TC 0.05 mg/mL+UVA, after 30 min irradiation
# [4] = TC 0.1 mg/mL+UVA, after 30 min irradiation
structure (smiles),measurement,setting,value
"CN(C)[C@@H]1C(O)=C(C(N)=O)C(=O)[C@@]2(O)C(O)=C3C(=O)c4c(O)cccc4[C@@](C)(O)[C@H]3C[C@@H]12 [TC, tetracycline]","Log10 CFU/mL (mean ± SD, n = 3)","C. difficile [1]; 0.05 mg/mL TC, irradiation 0 min",8.11 ± 0.48 Log10 CFU/mL
same,"Log10 CFU/mL (mean ± SD, n = 3)","C. difficile [1]; 0.05 mg/mL TC, irradiation 5 min",8.11 ± 0.78 Log10 CFU/mL
same,"Log10 CFU/mL (mean ± SD, n = 3)","C. difficile [1]; 0.05 mg/mL TC, irradiation 10 min",8.13 ± 0.40 Log10 CFU/mL
same,"Log10 CFU/mL (mean ± SD, n = 3)","C. difficile [1]; 0.05 mg/mL TC, irradiation 20 min",8.11 ± 0.67 Log10 CFU/mL
same,"Log10 CFU/mL (mean ± SD, n = 3)","C. difficile [1]; 0.05 mg/mL TC, irradiation 30 min",7.14 ± 0.33 Log10 CFU/mL
same,"Log10 CFU/mL (mean ± SD, n = 3)","C. difficile [1]; 0.1 mg/mL TC, irradiation 0 min",8.03 ± 0.39 Log10 CFU/mL
same,"Log10 CFU/mL (mean ± SD, n = 3)","C. difficile [1]; 0.1 mg/mL TC, irradiation 5 min",8.11 ± 0.11 Log10 CFU/mL
same,"Log10 CFU/mL (mean ± SD, n = 3)","C. difficile [1]; 0.1 mg/mL TC, irradiation 10 min",8.13 ± 0.53 Log10 CFU/mL
same,"Log10 CFU/mL (mean ± SD, n = 3)","C. difficile [1]; 0.1 mg/mL TC, irradiation 20 min",8.11 ± 0.21 Log10 CFU/mL
same,"Log10 CFU/mL (mean ± SD, n = 3)","C. difficile [1]; 0.1 mg/mL TC, irradiation 30 min",7.12 ± 0.38 Log10 CFU/mL
same,"Log10 CFU/mL (mean ± SD, n = 3)","C. difficile [1]; 0.5 mg/mL TC, irradiation 0 min",8.03 ± 0.48 Log10 CFU/mL
same,"Log10 CFU/mL (mean ± SD, n = 3)","C. difficile [1]; 0.5 mg/mL TC, irradiation 5 min",6.02 ± 0.76 Log10 CFU/mL
same,"Log10 CFU/mL (mean ± SD, n = 3)","C. difficile [1]; 0.5 mg/mL TC, irradiation 10 min",5.12 ± 0.10 Log10 CFU/mL
same,"Log10 CFU/mL (mean ± SD, n = 3)","C. difficile [1]; 0.5 mg/mL TC, irradiation 20 min",5.11 ± 0.27 Log10 CFU/mL
same,"Log10 CFU/mL (mean ± SD, n = 3)","C. difficile [1]; 0.5 mg/mL TC, irradiation 30 min",5.11 ± 0.23 Log10 CFU/mL
same,"Log10 CFU/mL (mean ± SD, n = 3)","C. difficile [1]; 1 mg/mL TC, irradiation 0 min",8.03 ± 0.39 Log10 CFU/mL
same,"Log10 CFU/mL (mean ± SD, n = 3)","C. difficile [1]; 1 mg/mL TC, irradiation 5 min",5.21 ± 0.11 Log10 CFU/mL
same,"Log10 CFU/mL (mean ± SD, n = 3)","C. difficile [1]; 1 mg/mL TC, irradiation 10 min",4.11 ± 0.23 Log10 CFU/mL
same,"Log10 CFU/mL (mean ± SD, n = 3)","C. difficile [1]; 1 mg/mL TC, irradiation 20 min",4.11 ± 0.21 Log10 CFU/mL
same,"Log10 CFU/mL (mean ± SD, n = 3)","C. difficile [1]; 1 mg/mL TC, irradiation 30 min",0 Log10 CFU/mL
same,decrease of viable cells,C. difficile [1]; [3],10 times
same,viable cells,C. difficile [1]; [3],1.12×10^7
same,decrease of viable cells,C. difficile [1]; [4],10 times
same,viable cells,C. difficile [1]; [4],1.14×10^7
same,viable cells,"C. difficile [1]; TC 0.5 mg/mL+UVA, after 5 min irradiation",1.10×10^6
same,viable cells,"C. difficile [1]; TC 0.5 mg/mL+UVA, after 10 min irradiation",1.12×10^5
same,viable cells,"C. difficile [1]; TC 0.5 mg/mL+UVA, after 20 min irradiation",1.11×10^5
same,viable cells,"C. difficile [1]; TC 0.5 mg/mL+UVA, after 30 min irradiation",1.13×10^5
same,viable cells,"C. difficile [1]; TC 1.0 mg/mL+UVA, after 5 min irradiation",1.21×10^5
same,viable cells,"C. difficile [1]; TC 1.0 mg/mL+UVA, after 10 min irradiation",1.11×10^4
same,viable cells,"C. difficile [1]; TC 1.0 mg/mL+UVA, after 20 min irradiation",1.13×10^4
same,viable cells,"C. difficile [1]; TC 1.0 mg/mL+UVA, after 30 min irradiation",0
same,"Ct value (EMA-qPCR, 16S rRNA)",C. difficile [2],23.026±0.101 and 23.03 ± 0.101
